# Columns and labels:
# T cell genes = settings: PHA-stimulated T cells, 2-deoxy-5-azaC
# CD70 expression = CD70 expression on CD4+ cells of PBMCs cultured with lupus medications; format: cell-based, human; settings: 1-100 μM, 24 hours, PBMCs with or without PHA
# Experimental: (§1) Cells and cell culture. Peripheral blood mononuclear cells (PBMCs) were isolated by density-gradient centrifugation. T cells were then isolated by E-rosetting (See, e.g., Golbus et al., Clin Immunol Immunopathol 46, 129 (1988)). […] Where indicated, the cells were cultured in RPMI 1640/10% fetal calf serum (FCS) supplemented with interleukin-2 (IL-2) (See, e.g., Richardson et al., Clin Immunol Immunopathol 55, 368 (1990)), in round-bottomed 5-ml culture tubes (Falcon). Cells were stimulated with 1 μg/ml of PHA (Remel) for 16 hours, then cultured in 24-well plates at a density of 1×10^6 for an additional 72 hours in the presence of 2-deoxy-5-azaC or 5-azaC (Sigma-Aldrich), procainamide (Sigma-Aldrich), hydralazine (Sigma-Aldrich), or the MEK inhibitors U0126 (Promega) or PD98059 (Promega). In other studies, PHA-stimulated PBMCs were cultured in RPMI 1640/10% FCS and treated with indomethacin, chloroquine, hydrocortisone, and 6-mercaptopurine (6-MP) (all from Sigma-Aldrich). TT48E, a cloned, CD4+, tetanus toxoid-reactive human T cell line, was cultured as previously described (Cornacchia et al., J Immunol 140, 2197 (1988); Richardson et al., Arthritis Rheum 35, 647 (1992)).
# (§2) Flow cytometric analysis. The following fluorochrome-conjugated monoclonal antibodies were obtained from BD PharMingen (San Diego, Calif.): FITC-conjugated anti-human CD70, CD2, or isotype-matched controls; phycoerythrin (PE)-conjugated anti-CD2, CD4, and CD8; and CyChromeconjugated anti-HLA-DR, CD2, and isotype controls. Staining and multicolor flow cytometric analysis were performed (See, e.g., Hale et al., Cell Immunol 220, 51 (2002)) using saturating concentrations of antibody.
# CD70 promoter = assay: Bisulfite sequencing of the CD70 promoter in CD4+ T cells; format: cell-based, human; settings: for methylation of the 10 CG pairs between −515 and −423 of the CD70 promoter: anti-CD3 and anti-CD28 stimulated CD4+ T cells vs stimulated untreated controls
# Experimental: (§3) In other studies, T cells were isolated by negative selection using magnetic beads and instructions provided by the manufacturer (Pan T cell Isolation Kit, Miltenyi), and the CD4+ or CD8+ subset was similarly isolated by magnetic cell sorting. Jurkat cells (E6-1) were cultured as previously described (See, e.g., Cornacchia et al., J Immunol 140:2197 (1998)). Purified human CD4+ T cells were first stimulated with plate bound anti-CD3 and soluble anti-CD28. Briefly, 24 well plates were coated with 300 μl of anti-CD3 (10 μg/ml in PBS—SouthernBiotech) 18 hours 4° C., washed, then 2×10^6 purified T cells were added to the wells in 2 ml RPMI 1640/10% FCS containing 2 μg/ml anti-CD28 (SouthernBiotech). The plates were incubated 37° C. in a humidified atmosphere containing 5% CO2 for 18-24 hours, then treated with 5 μm 5-azaC (Aldrich), 50 μm Pca (Sigma), 20 μm Hyd (Aldrich), 40 μm UO126 (Promega) or 25 μm PD98059 (Promega), and cultured for 3 additional days as described (See, e.g., Oelke et al., Arthritis Rheum 50:1850 (2004)).
# Bisulfite sequencing. The putative CD70 promoter was identified using the published CD70 cDNA sequence and Tfsitescan software. Deoxycytosine (dC) and deoxymethylcytosine (d^mC) bases in the gene promoter and 5′ flanking sequences were identified by bisulfite treatment of purified DNA followed by nested PCR amplification of 3 sequential fragments to span the entire region. The primers were designed to avoid CG pairs and to account for the conversion of dC to dU by the bisulfite. EcoRI sites were added to the forward primers, and XbaI to the reverse, to facilitate cloning. The amplified fragments were then cloned into PBS+, and 5 clones sequenced for each fragment. The primers used were: […]
# The effect of lupus and DNA methylation inhibitors on a regulatory element in the CD70 promoter was examined. DNA was isolated from the CD4+ T cells of 7 healthy individuals or 6 lupus patients, bisulfite treated, the region from −466-−515, containing 6 CG pairs was amplified by PCR, and 5 fragments sequenced from each individual. The average methylation status of the 6 CG pairs for healthy versus lupus individuals is shown (FIG. 8, NI and Lupus, respectively). CD4+ T cells from 5 individuals were also stimulated with PHA, treated with the irreversible DNA methyltransferase inhibitor 5-azacytidine (5-azaC), and the methylation status of the 6 CG pairs similarly analyzed from the 25 fragments sequenced (FIG. 8, 5-azaC). […] Results are presented as the mean±SEM of the average methylation of the 6 CG pairs, measured from the 10-35 determinations/group.
# The effects of the DNA methylation inhibitors on the methylation status of this region were then compared. […] Again, 5 cloned fragments were sequenced from each control, for a total of 35 determinations per CG pair. […] FIG. 14 compares the average methylation for the 10 CG pairs (−515 to −423) in the T cells treated with DNA methylation inhibitors relative to stimulated, untreated controls.
# T cell CD70 expression = assay: CD70 expression on PHA-stimulated T cells by flow cytometry; format: cell-based, human; settings: for CD70 expression on treated vs untreated PHA-stimulated T cells: unfractionated T cells, 3 days, 1 μM 5-azaC, dose-response for procainamide, PD98059, U0126
# Experimental: as §1, §2
# The panel of inhibitors used included 5-azaC, an irreversible DNA methyltransferase inhibitor (See, e.g., Glover and Leyland-Jones, Cancer Treat Rep 71, 959 (1987)) procainamide, a competitive DNA methyltransferase inhibitor (See e.g., Scheinbart et al., J Rheumatol 18, 530 (1991)), and the ERK pathway inhibitors PD98059, U0126, and hydralazine.
# Studies were performed examining the effects of the DNA methylation inhibitors on CD70 expression in CD4+ and CD8+ T cell subsets.
# CD70 mRNA = assay: CD70 transcripts by real time RT-PCR in anti-CD3 + anti-CD28 stimulated CD4+ T cells; format: cell-based, human; settings: 5 μm 5-azaC, 50 μm Pca, 20 μm Hyd, 40 μm U0126, 25 μm PD98059, 3 days
# Experimental: as §3
# [1] = target: KIR3DL1 on human T cells (human) (UniProt P43629); assay: cell-based or functional assay
# KIR3DL1 on human T cells (human), sequence (P43629 22-444): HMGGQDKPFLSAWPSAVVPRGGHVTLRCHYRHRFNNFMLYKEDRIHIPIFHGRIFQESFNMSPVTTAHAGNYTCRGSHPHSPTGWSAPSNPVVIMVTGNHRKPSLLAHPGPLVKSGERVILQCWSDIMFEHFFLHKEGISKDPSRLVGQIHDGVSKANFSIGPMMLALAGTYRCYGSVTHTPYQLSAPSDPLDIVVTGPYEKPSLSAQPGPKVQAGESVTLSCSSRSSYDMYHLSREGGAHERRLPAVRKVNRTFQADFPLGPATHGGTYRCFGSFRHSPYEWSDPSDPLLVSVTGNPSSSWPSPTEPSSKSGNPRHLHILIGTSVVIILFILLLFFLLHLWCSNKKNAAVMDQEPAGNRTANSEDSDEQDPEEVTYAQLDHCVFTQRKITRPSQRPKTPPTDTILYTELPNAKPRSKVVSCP
compound,measurement,setting,value
Nc1ncn([C@H]2C[C@H](O)[C@@H](CO)O2)c(=O)n1 [2-deoxy-5-azaC],CD70 expression increase in treated cells relative to untreated controls,"T cell genes; 3 days, oligonucleotide arrays, mean±SEM, 2 independent experiments",2.6±0.6 fold
same,genes decreased ≧2-fold,T cell genes; treated vs untreated,12 genes
same,genes reproducibly increased ≧2-fold,T cell genes; treated vs untreated,118 genes
"Sc1ncnc2nc[nH]c12 [6-MP, 6-mercaptopurine]",CD70 expression on stimulated or unstimulated CD4+ cells,CD70 expression,No increase in CD70 expression was seen
COc1cccc(-c2cc(=O)c3ccccc3o2)c1N [PD98059],methylation of the 10 CG pairs between −515 and −423 of the CD70 promoter,CD70 promoter,appears to demethylate
same,increase of CD70 MFI on CD4+ T cells,"T cell CD70 expression; 25 μM PD98059, n=3, P=0.032",1.63±0.43 fold
same,CD70 expression on CD4+ T cells,T cell CD70 expression,increased CD70 expression on CD4+ T cells
same,CD70 expression on treated vs untreated PHA-stimulated T cells,T cell CD70 expression,increase in CD70 expression with treatment
same,"CD70 transcripts relative to β-actin, treated vs untreated",CD70 mRNA,increase CD70 transcripts
CCN(CC)CCCC(C)Nc1ccnc2cc(Cl)ccc12 (stereo not drawn) [chloroquine],CD70 expression on stimulated or unstimulated CD4+ cells,CD70 expression,No increase in CD70 expression was seen
C[C@]12CCC(=O)C=C1CC[C@@H]1[C@@H]2[C@@H](O)C[C@@]2(C)[C@H]1CC[C@]2(O)C(=O)CO [hydrocortisone],CD70 expression on stimulated or unstimulated CD4+ cells,CD70 expression,No increase in CD70 expression was seen
COc1ccc2c(c1)c(CC(=O)O)c(C)n2C(=O)c1ccc(Cl)cc1 [indomethacin],CD70 expression on stimulated or unstimulated CD4+ cells,CD70 expression,No increase in CD70 expression was seen
CCN(CC)CCNC(=O)c1ccc(N)cc1 [procainamide],methylation of the CD70 promoter region −466-−515 (6 CG pairs),CD70 promoter; PHA-stimulated CD4+ T cells,demethylate this region
same,methylation of the 10 CG pairs between −515 and −423 of the CD70 promoter,CD70 promoter,appears to demethylate
same,CD70 expression on CD4+ T cells,T cell CD70 expression,increased CD70 expression on CD4+ T cells
same,CD70 expression on treated vs untreated PHA-stimulated T cells,T cell CD70 expression,increase in the ratio of the mean fluorescence intensity (MFI) of CD70 expression
same,"CD70 transcripts relative to β-actin, treated vs untreated",CD70 mRNA,increase CD70 transcripts
anti-NKB1 (KIR3DL1) antibody (BD PharMingen),% cytotoxicity (51Cr release from autologous monocytes/macrophages) (% cytotoxicity),[1],37

# From patent publication US20110256121A1, “METHODS AND KITS FOR DIAGNOSING OR MONITORING AUTOIMMUNE AND CHRONIC INFLAMMATORY DISEASES” (THE REGENTS OF THE UNIVERSITY OF MICHIGAN, priority 2008, published 2011)
